Experimental data: patent publication US20060090219A1, “Methods for producing plants with improved growth under nitrogen-limited conditions” (priority 2003, published 2006)

Experiments:
[1] = test system: potatoes (May Queen cultivar); experiment: Yield survey of potatoes after foliar application of proline under low-nitrogen conditions; type: in vivo, potato; conditions: for Total tuber weight (per plant) / Total number of tubers (per plant): foliar spray 6 times at one-week intervals, harvest 3 months after planting, n = 6; for Total tuber weight (per plant): low-nitrogen soil (total nitrogen 0.6 g); for Total number of tubers (per plant): low-nitrogen soil; for Ratio of total number of tubers to spreader group / Ratio of total tuber weight to spreader group: same test, spreader group = 1.00
Protocol: The effects of foliar application of a proline solution on growth and yield were investigating using potatoes (May Queen cultivar). Potato tubers were placed in No. 7 pots containing 1.5 kg of Power Soil (Kureha Chemical). Under normal cultivation conditions, about 5 g of nitrogen fertilizer is used as base fertilizer; while in this cultivation test, cultivation was under low-nitrogen conditions.
(§1) Three foliar application groups were prepared—a spreader group (Approach B1, Kao), a urea group (spreader+0.87 mM urea), and a proline group (spreader+1.75 mM proline), and about 20 ml per plant was sprayed once a week beginning about a month after planting (immediately before flowering). The leaves were sprayed 6 times (6 weeks), and harvested 3 months after planting.
Aqueous solutions of a spreader, urea and proline were applied 6 times at one-week intervals to the leaf surfaces of potato plants 1 month after planting. These were cultivated for 3 months after planting, with 6 pots in each group and one stalk per plant. The tubers were harvested from each pot, and the tuber weight and number of tubers per pot was measured.

[2] = test system: potato leaf tissue; conditions: 24 hours after foliar application, compared with spreader and urea groups, n=6
Protocol: as §1

`O=C(O)[C@@H]1CCCN1` [Proline, proline] was tested, and the “Total tuber weight (per plant)” value [1] was 158.4 ± 18.0 g, the “Total tuber weight (per plant)” value ([1]; listed as proline) was 158.4 g and the “Total number of tubers (per plant)” value [1] was 8.2 ± 1.0. For the same compound, the “Total number of tubers (per plant)” value ([1]; listed as proline) was 8.2, the “Ratio of total number of tubers to spreader group” value [1] was 1.00 and the “Ratio of total tuber weight to spreader group” value (“Ratio of total tuber weight” for short) [1] was 1.10. The “Ratio of total tuber weight” value ([1]; listed as proline) was 1.1 and the “2-OG content in leaf tissue” value [2] was “significantly greater”.
In the case of `NC(N)=O` [Urea, urea, reference compound], the “Total tuber weight (per plant)” value [1] was 140.1 ± 10.6 g, the “Total tuber weight (per plant)” value ([1]; listed as urea) was 140.1 g and the “Total number of tubers (per plant)” value [1] was 6.8 ± 1.6. The “Total number of tubers (per plant)” value ([1]; listed as urea) was 6.8, the “Ratio of total number of tubers to spreader group” value [1] was 0.83 and the “Ratio of total tuber weight” value [1] was 0.96.
